These substances were tested on CD8+ T cells (assay: In vitro T-cell priming assay (aAPCs loaded with peptide/MHC and anti-CD28, multimer staining readout)). Conditions: CD8+ T cells of healthy donors, three stimulation cycles with peptide/MHC and anti-CD28 coated beads.
Assay type: cell-based, human
Method: In an aspect, the peptides are pre-screened for immunogenicity before being included in the warehouse. By way of example, and not limitation, the immunogenicity of the peptides included in the warehouse is determined by a method comprising in vitro T-cell priming through repeated stimulations of CD8+ T cells from healthy donors with artificial antigen presenting cells loaded with peptide/MHC complexes and anti-CD28 antibody.
In order to obtain information regarding the immunogenicity of the TUMAPs of the present invention, the inventors performed investigations using an in vitro T-cell priming assay based on repeated stimulations of CD8+ T cells with artificial antigen presenting cells (aAPCs) loaded with peptide/MHC complexes and anti-CD28 antibody.
In order to perform in vitro stimulations by artificial antigen presenting cells loaded with peptide-MHC complex (pMHC) and anti-CD28 antibody, the inventors first isolated CD8+ T cells from fresh HLA-A*02 leukapheresis products via positive selection using CD8 microbeads (Miltenyi Biotec, Bergisch-Gladbach, Germany) of healthy donors obtained from the University clinics Mannheim, Germany, after informed consent.
PBMCs and isolated CD8+ lymphocytes were incubated in T-cell medium (TCM) until use consisting of RPMI-Glutamax (Invitrogen, Karlsruhe, Germany) supplemented with 10% heat inactivated human AB serum (PAN-Biotech, Aidenbach, Germany), 100 U/ml Penicillin/100 μg/ml Streptomycin (Cambrex, Cologne, Germany), 1 mM sodium pyruvate (CC Pro, Oberdorla, Germany), 20 μg/ml Gentamycin (Cambrex). 2.5 ng/ml IL7 (PromoCell, Heidelberg, Germany) and 10 U/ml IL-2 (Novartis Pharma, Nürnberg, Germany) were also added to the TCM at this step.
Generation of pMHC/anti-CD28 coated beads, T-cell stimulations and readout was performed in a highly defined in vitro system using four different pMHC molecules per stimulation condition and 8 different pMHC molecules per readout condition.
The purified co-stimulatory mouse IgG2a anti human CD28 Ab 9.3 (Jung et al., 1987) was chemically biotinylated using Sulfo-N-hydroxysuccinimidobiotin as recommended by the manufacturer (Perbio, Bonn, Germany). Beads used were 5.6 μm diameter streptavidin coated polystyrene particles (Bangs Laboratories, Illinois, USA).
pMHC used for positive and negative control stimulations were A*0201/MLA-001 (peptide […] (SEQ ID NO. 303) from modified Melan-A/MART-1) and A*0201/DDX5-001 ([…] from DDX5, SEQ ID NO. 304), respectively.
800.000 beads/200 μl were coated in 96-well plates in the presence of 4×12.5 ng different biotin-pMHC, washed and 600 ng biotin anti-CD28 were added subsequently in a volume of 200 μl. Stimulations were initiated in 96-well plates by co-incubating 1×10^6 CD8+ T cells with 2×10^5 washed coated beads in 200 μl TCM supplemented with 5 ng/ml IL-12 (PromoCell) for 3 days at 37° C. Half of the medium was then exchanged by fresh TCM supplemented with 80 U/ml IL-2 and incubating was continued for 4 days at 37° C. This stimulation cycle was performed for a total of three times. For the pMHC multimer readout using 8 different pMHC molecules per condition, a two-dimensional combinatorial coding approach was used as previously described (Andersen et al., 2012) with minor modifications encompassing coupling to 5 different fluorochromes. Finally, multimeric analyses were performed by staining the cells with Live/dead near IR dye (Invitrogen, Karlsruhe, Germany), CD8-FITC antibody clone SK1 (BD, Heidelberg, Germany) and fluorescent pMHC multimers. For analysis, a BD LSRII SORP cytometer equipped with appropriate lasers and filters was used. Peptide specific cells were calculated as percentage of total CD8+ cells. Evaluation of multimeric analysis was done using the FlowJo software (Tree Star, Oregon, USA). In vitro priming of specific multimer+CD8+ lymphocytes was detected by comparing to negative control stimulations.

Row | Substance | Wells (in vitro immunogenicity of HLA class I peptides)
1 | 292 (GMMTAILGV; listed as Homo sapiens) [compound 292] | + (<20% = +)
2 | 296 (TYVDSSHTI; listed as Homo sapiens) [compound 296] | + (<20% = +)
3 | 298 (RYLEGTSCI; listed as Homo sapiens) [compound 298] | + (<20% = +)

Same assay, conditions: in vitro immunogenicity of HLA class I peptides

Row | Substance | Wells positive [%]
4 | 196 (LYIDRPLPYL; listed as Homo sapiens) [compound 196] | ++++ (> = 70% = ++++)
5 | 218 (YYKSTSSAF; listed as Homo sapiens) [compound 218] | + (<20% = +)
6 | 285 (HYPPVQVLF; listed as Homo sapiens) [compound 285] | + (<20% = +)
7 | 5 (GIVAHIQEV; listed as Homo sapiens) [compound 5] | + (<20% = +)
8 | 35 (FLLPFSTVYL; listed as Homo sapiens) [compound 35] | + (<20% = +)
9 | 207 (AYVVFVSTL; listed as Homo sapiens) [compound 207] | + (<20% = +)
10 | 23 (SLFSDEFKV; listed as Homo sapiens) [compound 23] | ++++ (> = 70% = ++++)
11 | 29 (YLLDPSITL; listed as Homo sapiens) [compound 29] | + (<20% = +)
12 | 90 (FLQDLEQRL; listed as Homo sapiens) [compound 90] | + (<20% = +)
13 | 31 (TITETTVEV; listed as Homo sapiens) [compound 31] | + (<20% = +)
14 | 230 (KLQNIMMLL; listed as Homo sapiens) [compound 230] | ++++ (> = 70% = ++++)
15 | 268 (QYLGQIQHI; listed as Homo sapiens) [compound 268] | + (<20% = +)
16 | 269 (YFIDSTNLKTHF; listed as Homo sapiens) [compound 269] | + (<20% = +)
17 | 197 (EYSLFPGQVVI; listed as Homo sapiens) [compound 197] | + (<20% = +)

The substances below were run on HLA-A*24 (assay: MHC binding assay by UV-ligand exchange and beta2m ELISA, HLA-A*24). Conditions: binding to HLA-A*24 ranged by peptide exchange yield (UV-ligand exchange, β2m ELISA).
Parameters: species or system human
Excerpt: MHC Binding Assays Candidate peptides for T cell based therapies according to the present invention were further tested for their MHC binding capacity (affinity). The individual peptide-MHC complexes were produced by UV-ligand exchange, where a UV-sensitive peptide is cleaved upon UV-irradiation, and exchanged with the peptide of interest as analyzed. Only peptide candidates that can effectively bind and stabilize the peptide-receptive MHC molecules prevent dissociation of the MHC complexes. To determine the yield of the exchange reaction, an ELISA was performed based on the detection of the light chain (β2m) of stabilized MHC complexes. The assay was performed as generally described in Rodenko et al. (Rodenko et al., 2006).
96 well MAXISorp plates (NUNC) were coated over night with 2 ug/ml streptavidin in PBS at room temperature, washed 4× and blocked for 1 h at 37° C. in 2% BSA containing blocking buffer. Refolded HLA-A*02:01/MLA-001 monomers served as standards, covering the range of 15-500 ng/ml. Peptide-MHC monomers of the UV-exchange reaction were diluted 100 fold in blocking buffer. Samples were incubated for 1 h at 37° C., washed four times, incubated with 2 ug/ml HRP conjugated anti-β2m for 1 h at 37° C., washed again and detected with TMB solution that is stopped with […]. Absorption was measured at 450 nm. Candidate peptides that show a high exchange yield (preferably higher than 50%, most preferred higher than 75%) are generally preferred for a generation and production of antibodies or fragments thereof, and/or T cell receptors or fragments thereof, as they show sufficient avidity to the MHC molecules and prevent dissociation of the MHC complexes.

Row | Peptide exchange | Substance
18 | ++++ (> = 75% = ++++) | 184 (VFQNFPLLF; listed as Homo sapiens) [compound 184]
19 | ++++ (> = 75% = ++++) | 271 (LYHDIFSRL; listed as Homo sapiens) [compound 271]
20 | ++++ (> = 75% = ++++) | 192 (SYALLTYMI; listed as Homo sapiens) [compound 192]
21 | ++++ (> = 75% = ++++) | 227 (IFLDYEAGTLSF; listed as Homo sapiens) [compound 227]
22 | ++++ (> = 75% = ++++) | 210 (IYTMIYRNL; listed as Homo sapiens) [compound 210]
23 | ++++ (> = 75% = ++++) | 211 (YYLEVGKTLI; listed as Homo sapiens) [compound 211]
24 | ++++ (> = 75% = ++++) | 161 (IYLVSIPEL; listed as Homo sapiens) [compound 161]
25 | ++++ (> = 75% = ++++) | 202 (VYWDSAGAAHF; listed as Homo sapiens) [compound 202]
26 | ++++ (> = 75% = ++++) | 179 (MYDSYWRQF; listed as Homo sapiens) [compound 179]
27 | ++++ (> = 75% = ++++) | 187 (TYLRDQHFL; listed as Homo sapiens) [compound 187]
28 | ++++ (> = 75% = ++++) | 216 (QYSSVFKSL; listed as Homo sapiens) [compound 216]
29 | ++++ (> = 75% = ++++) | 282 (KFVDSTFYL; listed as Homo sapiens) [compound 282]
30 | ++++ (> = 75% = ++++) | 173 (IYSWILDHF; listed as Homo sapiens) [compound 173]
31 | ++++ (> = 75% = ++++) | 168 (KYQDILETI; listed as Homo sapiens) [compound 168]
32 | ++++ (> = 75% = ++++) | 177 (VYPWLGALL; listed as Homo sapiens) [compound 177]
33 | ++++ (> = 75% = ++++) | 175 (YYEVHKELF; listed as Homo sapiens) [compound 175]
34 | ++++ (> = 75% = ++++) | 172 (TYTTVPRVAF; listed as Homo sapiens) [compound 172]

Row | Peptide exchange | Substance
35 | ++++ (> = 75% = ++++) | 278 (RYISDQLFTNF; listed as Homo sapiens) [compound 278]
36 | ++++ (> = 75% = ++++) | 160 (VYTLDIPVL; listed as Homo sapiens) [compound 160]
37 | ++++ (> = 75% = ++++) | 267 (KYMVYPQTF; listed as Homo sapiens) [compound 267]
38 | ++++ (> = 75% = ++++) | 274 (AYLHSHALI; listed as Homo sapiens) [compound 274]
39 | ++++ (> = 75% = ++++) | 272 (QYLQDAYSF; listed as Homo sapiens) [compound 272]
40 | ++++ (> = 75% = ++++) | 276 (VYGFQWRHF; listed as Homo sapiens) [compound 276]
41 | ++++ (> = 75% = ++++) | 195 (TYSVSFPMF; listed as Homo sapiens) [compound 195]
42 | ++++ (> = 75% = ++++) | 280 (RYPDNLKHLYL; listed as Homo sapiens) [compound 280]
43 | ++++ (> = 75% = ++++) | 217 (FFPPTRQMGLLF; listed as Homo sapiens) [compound 217]
44 | ++++ (> = 75% = ++++) | 277 (VYQGHTALL; listed as Homo sapiens) [compound 277]
45 | ++++ (> = 75% = ++++) | 166 (YYVESGKLF; listed as Homo sapiens) [compound 166]
46 | ++++ (> = 75% = ++++) | 193 (RFHPTPLLL; listed as Homo sapiens) [compound 193]
47 | ++++ (> = 75% = ++++) | 181 (LYLDIINLF; listed as Homo sapiens) [compound 181]
48 | ++++ (> = 75% = ++++) | 186 (IFPQFLYQF; listed as Homo sapiens) [compound 186]
49 | ++++ (> = 75% = ++++) | 228 (KYTSWYVAL; listed as Homo sapiens) [compound 228]
50 | ++++ (> = 75% = ++++) | 289 (KYPVEWAKF; listed as Homo sapiens) [compound 289]
